The values below come from BindingDB's records for doi:10.1016/j.ejmech.2020.112602 (Utah State University, 2020).

Experiment [1] can be described thus: Inhibition of human Cx43 expressed in Escherichia coli LB2003 cells in medium containing 8 mM K+ and 10 uM IPTG by measuring cell growth after 18 hrs by plate reader.
The nature of experiment [2]: Inhibition of human Cx26 expressed in Escherichia coli LB2003 cells in medium containing 4 mM K+ and 500 uM IPTG by measuring cell growth after 18 hrs by plate reader.

The term IC50 denotes the concentration that gives 50% inhibition. Read a high IC50 as a need for much substance. Regarding `COc1ccc(COC[C@H]2O[C@H](O[C@@H]3[C@@H](O)[C@H](O[C@H]4O[C@H](CN)[C@@H](O)[C@H](O)[C@H]4O)[C@@H](N)C[C@H]3N)[C@H](O)[C@@H](N)[C@@H]2OCc2ccc(OC)cc2)cc1`, half-maximal inhibition in experiment [1] (IC50) required 4.1 µM. That is a single-digit micromolar value. Regarding `Cc1ccc(COC[C@H]2O[C@H](O[C@@H]3[C@@H](O)[C@H](O[C@H]4O[C@H](CN)[C@@H](O)[C@H](O)[C@H]4O)[C@@H](N)C[C@H]3N)[C@H](O)[C@@H](N)[C@@H]2OCc2ccc(C)cc2)cc1`, half-maximal inhibition in experiment [1] (IC50) required 3.1 µM. Still for that read-out and setting: as for `NC[C@H]1O[C@H](O[C@H]2[C@H](O)[C@@H](O[C@H]3O[C@H](COCc4ccc(Cl)cc4)[C@@H](OCc4ccc(Cl)cc4)[C@H](N)[C@H]3O)[C@H](N)C[C@@H]2N)[C@H](O)[C@@H](O)[C@@H]1O`, the figure is 17.1 µM. Compound `NC[C@H]1O[C@H](O[C@H]2[C@H](O)[C@@H](O[C@H]3O[C@H](COCc4ccc(F)cc4)[C@@H](OCc4ccc(F)cc4)[C@H](N)[C@H]3O)[C@H](N)C[C@@H]2N)[C@H](O)[C@@H](O)[C@@H]1O` showed an IC50 in experiment [1] of 26.6 µM.

For the compound `NC[C@H]1O[C@H](O[C@H]2[C@H](O)[C@@H](O[C@H]3O[C@H](COCc4ccc5ccccc5c4)[C@@H](OCc4ccc5ccccc5c4)[C@H](N)[C@H]3O)[C@H](N)C[C@@H]2N)[C@H](O)[C@@H](O)[C@@H]1O`, in experiment [1], the midpoint of inhibition, the IC50, lay at 6.2 µM. Against the preceding compound, the IC50 is about 4.3-fold lower.

The compound `NC[C@H]1O[C@H](O[C@H]2[C@H](O)[C@@H](O[C@H]3O[C@H](COCc4cccc(-c5ccccc5)c4)[C@@H](OCc4cccc(-c5ccccc5)c4)[C@H](N)[C@H]3O)[C@H](N)C[C@@H]2N)[C@H](O)[C@@H](O)[C@@H]1O` had an IC50 in experiment [1] of 5.5 µM. For `Cc1ccc(OC[C@H]2O[C@H](O[C@@H]3[C@@H](O)[C@H](O[C@H]4O[C@H](CN)[C@@H](O)[C@H](O)[C@H]4O)[C@@H](N)C[C@H]3N)[C@H](O)[C@@H](N)[C@@H]2O)cc1`, the figures for the 50% inhibitory concentration (IC50) in experiment [1] and in experiment [2] were 6.2 µM and 49.4 µM, respectively. The corresponding values for `NC[C@H]1O[C@H](O[C@H]2[C@H](O)[C@@H](O[C@H]3O[C@H](COc4ccc(Cl)cc4)[C@@H](O)[C@H](N)[C@H]3O)[C@H](N)C[C@@H]2N)[C@H](O)[C@@H](O)[C@@H]1O` are 8.9 µM and 17.2 µM. As for `NC[C@H]1O[C@H](O[C@H]2[C@H](O)[C@@H](O[C@H]3O[C@H](COc4ccc(-c5nc6ccccc6[nH]5)cc4)[C@@H](O)[C@H](N)[C@H]3O)[C@H](N)C[C@@H]2N)[C@H](O)[C@@H](O)[C@@H]1O`, the IC50 in experiment [1] was 17.7 µM; in experiment [2], 6 µM. On to `N[C@@H]1[C@@H](O)[C@@H](O[C@@H]2[C@@H](O)[C@H](O[C@H]3O[C@H](CNC(=O)c4ccccc4-c4c5ccc(=O)cc-5oc5cc(O)ccc45)[C@@H](O)[C@H](O)[C@H]3O)[C@@H](N)C[C@H]2N)O[C@H](CO)[C@H]1O`, for which the IC50 in experiment [1] was determined as 8.9 µM; in experiment [2], 12.7 µM. `N[C@@H]1[C@@H](O)[C@@H](O[C@@H]2[C@@H](O)[C@H](O[C@H]3O[C@H](CNC(=O)CCCc4cc5ccc6cccc7ccc(c4)c5c67)[C@@H](O)[C@H](O)[C@H]3O)[C@@H](N)C[C@H]2N)O[C@H](CO)[C@H]1O`: the IC50 in experiment [1] came to 8.6 µM; in experiment [2], 18.6 µM. In the case of `CCCCCCCCCCCC(=O)NC[C@H]1O[C@H](O[C@H]2[C@H](O)[C@@H](O[C@H]3O[C@H](CO)[C@@H](O)[C@H](N)[C@H]3O)[C@H](N)C[C@@H]2N)[C@H](O)[C@@H](O)[C@@H]1O`, the IC50 in experiment [2] amounted to 66.7 µM. In other words, the double-digit micromolar range.
